Results published in US8993618B2, “Composition for treating influenza A (H1N1) virus and a preparation method therefor” (priority 2010, dated 2015).
In brackets after ≈: the same amount, converted by molar mass. Where two headings read alike, the source gives them in different places.

How the values were obtained:
in vitro [1] = details: human
in vitro [2] = details: human, IC50 cytotoxicity Hep 3B
in vitro [3] = details: human; remark: listed apart in the source
in vitro [4] = details: human, IC50 cytotoxicity MCF 7
in vitro [5] = details: human; remark: listed apart in the source
in vitro [6] = details: human; remark: listed apart in the source
[7] = MTT cytotoxicity assay, MCF 7; details: human, MCF 7 breast cancer cells, IC50 cytotoxicity MCF 7, MTT
[8] = MTT cytotoxicity assay, A 549; details: human, A 549 lung cancer cells
[9] = MTT cytotoxicity assay, Hep G2; details: human, Hep G2 liver cancer cells
[10] = MTT cytotoxicity assay, Hep 3B; details: human, Hep 3B liver cancer cells, IC50 cytotoxicity Hep 3B
[11] = MTT cytotoxicity assay, Ca9-22; details: human, Ca9-22 oral cancer cells
[12] = MTT cytotoxicity assay, MDA-MB-231; details: human, MDA-MB-231 breast cancer cells
influenza A virus (H1N1) = test: microbe, parasite or virus in culture; format: cell-based; details: for IC50 / IC90: Influenza A virus; for IC50: read-out: IC50, influenza A (H1N1) antiviral activity; for IC90: read-out: IC90, influenza A (H1N1) antiviral activity
[13] = system: Hep G2 liver cancer cell line
[14] = system: Hep 3B liver cancer cell line
[15] = system: MDA-MB-231 breast cancer cell line
[16] = system: MCF 7 breast cancer cell line
[17] = system: Ca9-22 oral cancer cell line
[18] = system: A 549 lung cancer cell line
[19] = system: Ca9-22 oral cancer cell line; test: MTT cytotoxicity assay, Ca9-22; details: MTT, 3 days
[20] = system: MCF 7 breast cancer cell line; test: MTT cytotoxicity assay, MCF 7; details: MTT, 3 days
[21] = system: A 549 lung cancer cell line; test: MTT cytotoxicity assay, A 549; details: MTT, 3 days
[22] = system: Hep G2 liver cancer cell line; test: MTT cytotoxicity assay, Hep G2; details: MTT, 3 days
[23] = system: Hep 3B liver cancer cell line; test: MTT cytotoxicity assay, Hep 3B; details: 3 days
[24] = system: MDA-MB-231 breast cancer cell line; test: MTT cytotoxicity assay, MDA-MB-231; details: MTT, 3 days
[25] = H1N1, 72 h, MDCK cells, XTT, 3 days, concentration achieving 50% cytoprotection
[26] = H1N1, 72 h, MDCK cells, XTT, 3 days
[27] = MDCK cells, XTT, 3 days, concentration achieving 50% cytoprotection

With `C[C@@H]1C[C@@H](O)[C@]2(C)[C@@H](C)C(=O)CC[C@H]2[C@]1(C)COc1ccc2ccc(=O)oc2c1` (single isomer, unassigned) [Kamolonol, kamolonol] the IC50 at 3 days (in vitro [1]) was > 20 mg/L, the IC50 at 3 days (in vitro [2]) was 17.9 mg/L (≈ 45 µM) and the IC50 at 3 days (in vitro [3]) was > 20 mg/L. The IC50 at 3 days (in vitro [4]) was > 20 mg/L, the IC50 at 3 days (in vitro [5]) was > 20 mg/L and the IC50 at 3 days (in vitro [6]) was > 20 mg/L.

`C=C1CC[C@]2(C)C(C)(C)[C@@H](OC(C)=O)CC[C@]2(C)[C@H]1COc1ccc2ccc(=O)oc2c1` (single isomer, unassigned) [Polyanthinin, polyanthinin] gave an IC50 at 3 days (in vitro [2]) of 5.9 mg/L (≈ 13.5 µM) and an IC50 at 3 days (in vitro [4]) of 9.94 mg/L (≈ 22.7 µM).

For `COc1cc(C=O)ccc1O` (single isomer, unassigned) [Vanillin, vanillin], the IC50 at 3 days [7] was 15.7 mg/L (≈ 103 µM), the IC50 at 3 days [8] was 16.4 mg/L (≈ 108 µM) and the IC50 at 3 days [9] was > 20 mg/L. For the same molecule, the IC50 at 3 days [10] was > 20 mg/L, the IC50 at 3 days [11] was > 20 mg/L and the IC50 at 3 days [12] was > 20 mg/L.

In the case of `NC12CC3CC(CC(C3)C1)C2` [Amantadine, reference compound], the IC50 (influenza A virus (H1N1); H1N1, MDCK, 72 h) is reported as 0.92 ± 0.04 mg/L (≈ 6.08 µM) and the IC90 (influenza A virus (H1N1); H1N1, MDCK, 72 h) is reported as 1.73 ± 0.11 mg/L (≈ 11.4 µM).

For `CC(=O)O[C@H](CC/C(C)=C/CC/C(C)=C/COc1ccc2ccc(=O)oc2c1)C(C)(C)O` [Compound 2, 10′R-Acetoxy-11′-hydroxyumbelliprenin], the IC50 (influenza A virus (H1N1); [25]) was 0.94 ± 0.07 mg/L (≈ 2.12 µM), the IC90 (influenza A virus (H1N1); [26]) was 1.98 ± 0.12 mg/L (≈ 4.47 µM) and the IC50 at 3 days (in vitro [1]) was > 20 mg/L. For the same molecule, the IC50 at 3 days (in vitro [2]) was 19.8 mg/L (≈ 44.7 µM), the IC50 at 3 days (in vitro [3]) was > 20 mg/L and the IC50 at 3 days (in vitro [4]) was > 20 mg/L. The IC50 at 3 days (in vitro [5]) was > 20 mg/L and the IC50 at 3 days (in vitro [6]) was > 20 mg/L.

With `CC(C)=CCC/C(C)=C/C(O)C/C(C)=C/COc1ccc2ccc(=O)oc2c1` (stereo not drawn) [Compound 4, 5′-hydroxyumbelliprenin] the “IC90, influenza A (H1N1) antiviral activity” value (influenza A virus (H1N1); MDCK cells, XTT, 3 days) was 0.62 ± 0.08 mg/L (≈ 1.62 µM) and the “IC50, influenza A (H1N1) antiviral activity” value (influenza A virus (H1N1); [27]) was 0.36 ± 0.03 mg/L (≈ 0.941 µM).

For `C/C(=C\COc1ccc2ccc(=O)oc2c1)CC/C=C(\C)CCC(O)C(C)(C)O` (stereo not drawn) [Compound 5, 10′R-karatavicinol], the “IC90, influenza A (H1N1) antiviral activity” value (influenza A virus (H1N1); MDCK cells, XTT, 3 days) was 2.05 ± 0.14 mg/L (≈ 5.12 µM), the “IC50, influenza A (H1N1) antiviral activity” value (influenza A virus (H1N1); [27]) was 0.99 ± 0.07 mg/L (≈ 2.47 µM) and the “IC50 cytotoxicity Hep G2” value [13] was >20 mg/L. For the same molecule, the “IC50 cytotoxicity Hep 3B” value [14] was >20 mg/L, the “IC50 cytotoxicity MDA-MB-231” value [15] was >20 mg/L and the “IC50 cytotoxicity MCF 7” value [16] was 14.27 mg/L (≈ 35.6 µM). The “IC50 cytotoxicity Ca9-22” value [17] was >20 mg/L and the “IC50 cytotoxicity A 549” value [18] was 10.97 mg/L (≈ 27.4 µM).

In the case of `CC(=O)OC(CC=C(C)C)/C(C)=C/[C@@H](O)C/C(C)=C/COc1ccc2ccc(=O)oc2c1` (stereo partly drawn) [Compound 6, 8′-acetoxy-5′S-hydroxyumbelliprenin], the “IC90, influenza A (H1N1) antiviral activity” value (influenza A virus (H1N1); MDCK cells, XTT, 3 days) is reported as 1.56 ± 0.11 mg/L (≈ 3.54 µM), the “IC50, influenza A (H1N1) antiviral activity” value (influenza A virus (H1N1); [27]) is reported as 0.81 ± 0.06 mg/L (≈ 1.84 µM) and the “IC50 cytotoxicity Hep G2” value [13] is reported as 15.59 mg/L (≈ 35.4 µM). The “IC50 cytotoxicity Hep 3B” value [14] was 9.82 mg/L (≈ 22.3 µM), the “IC50 cytotoxicity MDA-MB-231” value [15] was >20 mg/L and the “IC50 cytotoxicity MCF 7” value [16] was >20 mg/L. The “IC50 cytotoxicity Ca9-22” value [17] was 14.23 mg/L (≈ 32.3 µM) and the “IC50 cytotoxicity A 549” value [18] was >20 mg/L.

For `COC(=O)CC[C@H]1C(=C(C)C)CC[C@H](C)[C@]1(C)COc1ccc2ccc(=O)oc2c1` [Compound 7, methyl galbanate], the IC50 (influenza A virus (H1N1); [25]) was 0.26 ± 0.03 mg/L (≈ 0.63 µM), the IC90 (influenza A virus (H1N1); [26]) was 0.44 ± 0.05 mg/L (≈ 1.07 µM) and the IC50 at 3 days (in vitro [2]) was 4.33 mg/L (≈ 10.5 µM). The IC50 at 3 days (in vitro [4]) was > 20 mg/L.

For `CC(C)=C1CC[C@H](C)[C@](C)(COc2ccc3ccc(=O)oc3c2)[C@H]1CCC(=O)O` [Compound 8, galbanic acid], the IC50 (influenza A virus (H1N1); [25]) was 0.45 ± 0.04 mg/L (≈ 1.13 µM) and the IC90 (influenza A virus (H1N1); [26]) was 0.88 ± 0.07 mg/L (≈ 2.21 µM).

With `C/C(=C\COc1ccc2ccc(=O)oc2c1)CC[C@@H]1C(C)(C)[C@H]2CC[C@]1(C)O2` [Compound 9, farnesiferol C] the “IC90, influenza A (H1N1) antiviral activity” value (influenza A virus (H1N1); MDCK cells, XTT, 3 days) was 0.50 ± 0.07 mg/L (≈ 1.31 µM) and the “IC50, influenza A (H1N1) antiviral activity” value (influenza A virus (H1N1); [27]) was 0.29 ± 0.02 mg/L (≈ 0.758 µM).

For `C=C1CC[C@@H]2C(C)(C)[C@H](O)CC[C@@]2(C)[C@H]1COc1ccc2ccc(=O)oc2c1` [Compound 10, farnesiferol A], the “IC90, influenza A (H1N1) antiviral activity” value (influenza A virus (H1N1); MDCK cells, XTT, 3 days) was 0.64 ± 0.07 mg/L (≈ 1.67 µM), the “IC50, influenza A (H1N1) antiviral activity” value (influenza A virus (H1N1); [27]) was 0.51 ± 0.04 mg/L (≈ 1.33 µM) and the “IC50 cytotoxicity Hep G2” value [13] was 14.89 mg/L (≈ 38.9 µM). For the same molecule, the “IC50 cytotoxicity Hep 3B” value [14] was 7.66 mg/L (≈ 20 µM), the “IC50 cytotoxicity MDA-MB-231” value [15] was 19.00 mg/L (≈ 49.7 µM) and the “IC50 cytotoxicity MCF 7” value [16] was 15.57 mg/L (≈ 40.7 µM). For the same molecule, the “IC50 cytotoxicity A 549” value [18] was 15.79 mg/L (≈ 41.3 µM) and the “IC50 cytotoxicity Ca9-22” value [19] was 12.07 mg/L (≈ 31.6 µM).

With `CC1=CC[C@@H]2C(C)(C)[C@@H](O)CC[C@@]2(C)[C@@H]1COc1ccc2ccc(=O)oc2c1` [Compound 11, conferol] the IC50 (influenza A virus (H1N1); [25]) was 0.47 ± 0.05 mg/L (≈ 1.23 µM), the IC90 (influenza A virus (H1N1); [26]) was 0.83 ± 0.09 mg/L (≈ 2.17 µM) and the “IC50 cytotoxicity Hep 3B” value ([14]; human, 3 days) was 2.63 mg/L (≈ 6.88 µM). For the same molecule, the “IC50 cytotoxicity MCF 7” value ([16]; human, 3 days) was 3.38 mg/L (≈ 8.84 µM), the IC50 at 3 days (in vitro [2]) was 2.6 mg/L (≈ 6.8 µM) and the IC50 at 3 days (in vitro [4]) was 3.4 mg/L (≈ 8.89 µM).

For `CC1=CC(=O)[C@@H]2C(C)(C)[C@H](O)CC[C@@]2(C)[C@@H]1COc1ccc2ccc(=O)oc2c1` [Compound 12, ligupersin A], the “IC90, influenza A (H1N1) antiviral activity” value (influenza A virus (H1N1); MDCK cells, XTT, 3 days) was 1.75 ± 0.12 mg/L (≈ 4.41 µM) and the “IC50, influenza A (H1N1) antiviral activity” value (influenza A virus (H1N1); [27]) was 0.86 ± 0.08 mg/L (≈ 2.17 µM).

In the case of `CC1=CC(=O)[C@@H]2C(C)(C)C(=O)CC[C@@]2(C)[C@@H]1COc1ccc2ccc(=O)oc2c1` [Compound 13, epi-conferdione], the “IC90, influenza A (H1N1) antiviral activity” value (influenza A virus (H1N1); MDCK cells, XTT, 3 days) is reported as 0.37 ± 0.03 mg/L (≈ 0.938 µM) and the “IC50, influenza A (H1N1) antiviral activity” value (influenza A virus (H1N1); [27]) is reported as 0.32 ± 0.02 mg/L (≈ 0.811 µM).

Molecule `COc1cccc2c1C(=O)c1c(O)c3c(c(O)c1C2=O)C[C@@](O)(C(=O)CO)C[C@@H]3O[C@H]1C[C@H](N)[C@H](O)[C@H](C)O1` [Doxorubicin, reference compound] has an IC50 at 3 days [8] of 0.35 mg/L (≈ 0.644 µM), an IC50 at 3 days [9] of 0.16 mg/L (≈ 0.294 µM) and an IC50 at 3 days [10] of 0.41 mg/L (≈ 0.754 µM). The IC50 at 3 days [11] was 0.14 mg/L (≈ 0.258 µM).

With foetisulfide C the “IC50 cytotoxicity MCF 7” value [20] was >20 mg/L, the “IC50 cytotoxicity A 549” value [21] was 9.14 mg/L and the “IC50 cytotoxicity Hep G2” value [22] was >20 mg/L. The “IC50 cytotoxicity Hep 3B” value [23] was 19.21 mg/L, the “IC50 cytotoxicity Ca9-22” value [19] was 16.48 mg/L and the “IC50 cytotoxicity MDA-MB-231” value [24] was >20 mg/L.
